Measurements from patent publication US11484032B2, “Compositions for inhibition of insect sensing” (Vanderbilt University, priority 2011, dated 2022).

Assays:
Orco 28 + Orco [1] = biological target: T1, Orco 28 + Orco (Anopheles gambiae, UniProt Q7QCC7); assay: Orco 28 + Orco: agonist / antagonist / potentiator screen (Table 1); assay type: cell-based; conditions: for Orco 28 + Orco Antagonist % Reduction: antagonist mode; for Orco 28 + Orco Potentiator % increase: potentiator mode
T1 construct: expressed in transfected cells
T1 sequence (Q7QCC7 1-478): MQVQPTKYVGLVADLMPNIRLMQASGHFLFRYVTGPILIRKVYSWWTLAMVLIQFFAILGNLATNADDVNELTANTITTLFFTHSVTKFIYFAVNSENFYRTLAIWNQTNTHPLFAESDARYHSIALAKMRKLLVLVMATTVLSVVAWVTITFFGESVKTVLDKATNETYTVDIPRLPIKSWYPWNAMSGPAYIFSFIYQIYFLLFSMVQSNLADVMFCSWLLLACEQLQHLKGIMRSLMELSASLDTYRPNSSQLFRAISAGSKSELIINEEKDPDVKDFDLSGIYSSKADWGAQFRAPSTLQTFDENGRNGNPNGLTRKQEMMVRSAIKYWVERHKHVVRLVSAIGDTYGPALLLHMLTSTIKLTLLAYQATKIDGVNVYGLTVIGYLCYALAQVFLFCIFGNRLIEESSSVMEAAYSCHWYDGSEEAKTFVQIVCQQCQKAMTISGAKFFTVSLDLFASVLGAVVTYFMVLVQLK
Description: (§1) The activity against insect odorant sensory receptors was evaluated for various disclosed compounds, and the data were collected in Table 1.

[2] = system: An. gambiae early 4th instar larvae; assay: Larval mosquito movement assay (Daniovision-Ethovision); assay type: in vivo, Anopheles gambiae; conditions: for threshold concentration for increased larval movement: movements over 5-minute period; for larval behavioral (movement) response: compared with DMSO controls or VUAA1
Description: Next, the agonist activity of the VUAA compound class was tested to establish the involvement of AgORs in mediating larval ortho and klinokinesis in response to a series of semiochemicals using larval-stage An. gambiae mosquitoes. Mosquito larvae are aquatic, thus compounds can be delivered to individual early 4th instar larvae regardless of volatility. The assay currently utilizes 6-well plates and the Daniovision-Ethovision platform (Noldus Inc.) to simultaneously record and analyze 6 larvae, thereby providing modest rates of throughput and a high degree of reproducibility. In these assays, larval movements are automatically quantified over 5-minute period and control larvae consistently move the same number of times in the presence or absence of 0.1% DMSO (p=0.80, n=31) (FIGS. 42-43). Furthermore, the effects of the widely-used synthetic insect repellent N, N-diethyl-meta-toluamide (DEET) was tested and DEET was also observed to increase larval movements at and above a threshold concentration of 5×10^−4M (p=0.013, n=27) (FIGS. 42-43).

AgORco+AgOR10 = biological target: T2, AgORco+AgOR10 (Anopheles gambiae, UniProt Q7QCC7); assay: Fluo-4 Ca2+ imaging, HEK293 cells expressing Orco+AgOR10; assay type: cell-based; parameters: Orco 10 + Orco Angatonist % Reduction / Orco 10 + Orco Agonist % of control: concentration or dose not given beside the values; conditions: for Orco 10 + Orco Potentiator % increase: potentiator mode; for Orco 10 + Orco Angatonist % Reduction: antagonist mode
T2 construct: expressed in transfected cells
T2 sequence (Q7QCC7 1-478): T1 sequence (Q7QCC7 1-478)
Text: (§2) For transient transfections, ORs were cloned into pCl (Promega) and transfected into Flp-In™ T-REx™293 cell lines (Invitrogen) with Fu GENE6 (Roche). For the creation of stable cell lines, a cell culture expression vector capable of expressing Orco in conjunction with a conventional OR, pcDNA5/FRT/TO (Invitrogen) was modified to create two individual expression cassettes each under the control of a separate CMV/Tet02 promoter and a BGH poly-adenylation signal. Cells (as above) were transfected with the modified pcDNA5 plasmid along with POG44 (a Flp recombinase expression plasmid) to facilitate site-specific recombination. Stable cell lines were selected using Hygromycin B (Invitrogen). Cells were maintained in DMEM (Invitrogen) supplemented with 10% Tetracycline-free FBS (HyClone) and 15 ng/ml Blasticidin. For fluorometric Ca2+ measurements, stable lines expressing ORs of interest were seeded at 20,000 cells/well in black wall, poly-lysine coated 384-well cell culture plates (Greiner) and treated with […] tetracycline (Sigma) overnight to induce OR expression. Cells were dye-loaded with 1.8 uM Fluo-4 AM (Molecular Probes), 2.5 mM Probenecid (Molecular Probes) in assay buffer (20 mM HEPES, IX HBSS) for 45 minutes at 37° C. in 5% CO2 prior to each assay. Ca^2+ mobilization was assayed in an FDSS6000 (Hamamatsu). Baseline readings were taken for 20 s before automated addition of compound previously diluted in DMSO and assay buffer. Ratios were described as Maximum/Minimum response and each response was normalized to the maximum responder.
As part of an ongoing, cell based calcium imaging screen for novel small-molecule modulators of AgORs that might disrupt olfactory-driven mosquito behaviors (Rinker et al manuscript in preparation), the inventors identified a number of compounds that activated AgOR10+AgORco-expressing human embryonic kidney (HEK293) cells. One of these compounds, (FIG. 3 A) denoted here as VUAA1, elicited activity consistent with allosteric agonism and was pursued for its novel properties. The identity of VUAA1 was verified using high-resolution mass spectrometry (HRMS) as well as ^1H and ^13C NMR. […] As AgORco was the common element among these functional responses, the inventors postulated that VUAA1 was a potential AgORco agonist.

Orco 28 + Orco [3] = biological target: T1, Orco 28 + Orco; assay: Ca2+ imaging, cells expressing Orco + OR28 (Table 1 head "Orco 28 + Orco"); assay type: cell-based; conditions: for Orco 28 + Orco Potentiator % increase: potentiator mode; for Orco 28 + Orco Antagonist % Reduction: antagonist mode
Description: as §1

AgOrco+AgOR65 = biological target: T3, AgOrco+AgOR65 (Anopheles gambiae, UniProt Q7QCC7); assay: Ca2+ imaging, HEK cells expressing AgOrco+AgOR65; assay type: cell-based; conditions: for EC50: heteromeric OR channels AgOrco+AgOR65, read-out: EC50
T3 construct: expressed in transfected cells
T3 sequence (Q7QCC7 1-478): T1 sequence (Q7QCC7 1-478)
Text: as §2
For VUAA0, a single methyl from the para position of the aniline ring (compound VUAA0, FIG. 44) in the VUAA1 structure was removed. […] In VUAA0.5, unsaturation was introduced at the para position of the aniline ring (VUAA0.5, FIG. 44). […] In VUAA2, the ethyl group of the aniline ring in VUAA1 was replaced with an isopropyl group (VUAA2, FIG. 44).

AgORco+AgOR48 = biological target: T4, AgORco+AgOR48 (Anopheles gambiae, UniProt Q7QCC7); assay: Ca2+ imaging, HEK cells expressing AgORco+AgOR48; assay type: cell-based; conditions: AgORco co-expressed with AgOR48; read-out: EC50
T4 construct: expressed in transfected cells
T4 sequence (Q7QCC7 1-478): T1 sequence (Q7QCC7 1-478)
Text: as §2
The ability of VUAA1 and its analogs to agonize representative ORco proteins from dipteran (Anopheles gambiae, AgORco), lepidopteran (Heliothis virescens, HvORco) and hymenopteran (Harpegnathos saltator, HsORco) orders was tested. […] Furthermore, the hierarchy of VUAA series potency was the same, irrespective of whether AgORco was co-expressed with AgOR65 or AgOR48 tuning ORs (FIG. 45). Without wishing to be bound by a particular theory, odorant ligands are thought to activate the complex via interaction with the tuning ORx and thereby affect ORco/ORx channel properties. […] These findings indicate VUAA-class OR co-modulators are viable compounds for further development as broad-spectrum insect control strategies, and VUAA4 can provide an advance in the pharmacological profile of VUAA-based compounds.

SMILES: CC(=O)n1ccc2ccc(C(=O)CSc3nnc(-c4cccnc4)n3C)cc21
- Orco 28 + Orco Antagonist % Reduction (Orco 28 + Orco [1]): 13.76%

SMILES: Cn1c(SCC(=O)Nc2ccc(Br)cc2)nnc1-c1cccnc1
- Orco 28 + Orco Potentiator % increase (Orco 28 + Orco [1]): 11.23%

SMILES: CCN(CC)C(=O)c1cccc(C)c1 [DEET, N, N-diethyl-meta-toluamide, reference compound]
- threshold concentration for increased larval movement [2]: 500000 nM

SMILES: CCn1c(SCC(=O)C(C)(C)C)nnc1-c1cccnc1
- Orco 10 + Orco Potentiator % increase (AgORco+AgOR10; 10 + Orco): 12.1%
- Orco 28 + Orco Potentiator % increase (Orco 28 + Orco [1]): 17.24%

SMILES: Cn1c(SCC(=O)Nc2ccc(F)cc2)nnc1-c1cccnc1
- Orco 28 + Orco Antagonist % Reduction (Orco 28 + Orco [1]): 11.09%

SMILES: NC(=O)CSc1nnc(-c2cccnc2)n1-c1ccccc1
- Orco 28 + Orco Potentiator % increase (Orco 28 + Orco [3]): 15.18%

SMILES: O=C(CSc1nnc(-c2cccnc2)n1CCc1ccccc1)NCc1ccccc1
- Orco 28 + Orco Potentiator % increase (Orco 28 + Orco [3]): 15.9%

SMILES: CCn1c(SCC(=O)NCc2ccco2)nnc1-c1cccnc1
- Orco 10 + Orco Potentiator % increase (AgORco+AgOR10; 10 + Orco): 10.23%
- Orco 28 + Orco Antagonist % Reduction (Orco 28 + Orco [1]): 10.89%

SMILES: O=C(CSc1nnc(-c2cccnc2)n1Cc1ccccc1)Nc1ccc(F)cc1
- Orco 28 + Orco Potentiator % increase (Orco 28 + Orco [3]): 16.12%

SMILES: CCOc1ccccc1-n1c(SCC(N)=O)nnc1-c1cccnc1
- Orco 28 + Orco Potentiator % increase (Orco 28 + Orco [3]): 14.71%

SMILES: CCn1c(SCc2nc3ccccc3[nH]2)nnc1-c1cccnc1
- Orco 10 + Orco Potentiator % increase (AgORco+AgOR10; 10 + Orco): 7.5%
- Orco 28 + Orco Potentiator % increase (Orco 28 + Orco [1]): 15.1%

SMILES: CCn1c(SCC(=O)Nc2ccc(C)cc2)nnc1-c1cccnc1 [VUAA0, 2-((4-ethyl-5-(pyridin-3-yl)-4H-1,2,4-triazol-3-yl)thio)-N-(p-tolyl)acetamide]
- larval behavioral (movement) response [2]: lower
- EC50 (AgOrco+AgOR65): 3400 µM

SMILES: COC(=O)c1ccccc1NC(=O)CSc1nnc(-c2cccnc2)n1C
- Orco 10 + Orco Potentiator % increase (AgORco+AgOR10; 10 + Orco): 15.15%
- Orco 28 + Orco Potentiator % increase (Orco 28 + Orco [1]): 18.02%

SMILES: Cc1cc(C)c(C(=O)CSc2nnc(-c3cccnc3)n2C)c(C)c1
- Orco 28 + Orco Antagonist % Reduction (Orco 28 + Orco [1]): 18.21%

SMILES: C=Cc1ccc(NC(=O)CSc2nnc(-c3cccnc3)n2CC)cc1 [VUAA0.5, 2-((4-ethyl-5-(pyridin-3-yl)-4H-1,2,4-triazol-3-yl)thio)-N-(4-vinylphenyl)acetamide]
- larval behavioral (movement) response [2]: comparable to DMSO controls
- EC50 (AgOrco+AgOR65): 110 µM

SMILES: CC(C)c1ccc(NC(=O)CSc2nnc(-c3ccncc3)n2C2CC2)cc1 [VUAA4, 2-((4-cyclopropyl-5-(pyridin-4-yl)-4H-1,2,4-triazol-3-yl)thio)-N-(4-isopropylphenyl)acetamide]
- larval movement at the highest concentration ([2]; 10^−5M): Reduced larval movement
- larval movement response ([2]; 10^−8M): absence of response
- larval behavioral (movement) response [2]: higher levels of movement
- lower response threshold compared to VUAA1 ([2]; in vivo): 5 fold
- threshold concentration for increased larval movement [2]: 1 nM
- improvement in agonist potency compared to VUAA1 (AgOrco+AgOR65; AgOrco+AgOR65): 10 fold
- maximum response relative to earlier VUAA compounds (AgOrco+AgOR65; AgOrco+AgOR65): additional improvement in the maximum response when compared to VUAA1
- EC50 (AgOrco+AgOR65): 2.1 µM
- EC50 (AgORco+AgOR48): 1.7 µM

SMILES: Clc1ccc(-n2c(SC/C=C/c3ccccc3)nnc2-c2cccnc2)cc1
- Orco 10 + Orco Potentiator % increase (AgORco+AgOR10; Orco 10 + Orco): 48.08%
- Orco 28 + Orco Antagonist % Reduction (Orco 28 + Orco [3]): 20.56%

SMILES: CCn1c(SCC(=O)Nc2ccc(C(C)C)cc2)nnc1-c1cccnc1 [VUAA2, 2-((4-ethyl-5-(pyridin-3-yl)-4H-1,2,4-triazol-3-yl)thio)-N-(4-isopropylphenyl)acetamide]
- larval behavioral (movement) response [2]: not observed to elicit larval responses greater than VUAA1
- EC50 (AgOrco+AgOR65): 9.2 µM

SMILES: O=C(CSc1nnc(-c2cccnc2)n1-c1ccc(Br)cc1)c1c[nH]c2ccccc12
- Orco 28 + Orco Potentiator % increase (Orco 28 + Orco [3]): 19.9%

SMILES: C=CCn1c(SCc2cc3c(cc2Cl)OCO3)nnc1-c1cccnc1
- Orco 28 + Orco Antagonist % Reduction (Orco 28 + Orco [1]): 16.91%

SMILES: CCc1cccc(CC)c1-n1c(SCn2nnc3ccccc3c2=O)nnc1-c1cccnc1
- Orco 10 + Orco Angatonist % Reduction (AgORco+AgOR10; Orco 10 + Orco): 25.00%
- Orco 28 + Orco Antagonist % Reduction (Orco 28 + Orco [3]): 22.91%

SMILES: Cc1ccc(NC(=O)CSc2nnc(-c3cccnc3)n2C)c(C)c1
- Orco 28 + Orco Potentiator % increase (Orco 28 + Orco [1]): 12.63%

SMILES: CCOc1ccccc1-n1c(SCC(=O)c2cccc([N+](=O)[O-])c2)nnc1-c1cccnc1
- Orco 10 + Orco Angatonist % Reduction (AgORco+AgOR10; Orco 10 + Orco): 22.28%
- Orco 28 + Orco Antagonist % Reduction (Orco 28 + Orco [3]): 25.53%
